Assay results published in PMC11596957, “Biological Characteristics of a Novel Bibenzyl Synthase (DoBS1) Gene from Dendrobium officinale Catalyzing Dihydroresveratrol Synthesis” (Molecules, 2024).

Target: T1, DoBS1 (bibenzyl synthase) (Dendrobium officinale, UniProt Z9NEY1S5B3)
T1 construct: type III PKS family known as homodimer
T1 sequence (Z9NEY1S5B3 1-390): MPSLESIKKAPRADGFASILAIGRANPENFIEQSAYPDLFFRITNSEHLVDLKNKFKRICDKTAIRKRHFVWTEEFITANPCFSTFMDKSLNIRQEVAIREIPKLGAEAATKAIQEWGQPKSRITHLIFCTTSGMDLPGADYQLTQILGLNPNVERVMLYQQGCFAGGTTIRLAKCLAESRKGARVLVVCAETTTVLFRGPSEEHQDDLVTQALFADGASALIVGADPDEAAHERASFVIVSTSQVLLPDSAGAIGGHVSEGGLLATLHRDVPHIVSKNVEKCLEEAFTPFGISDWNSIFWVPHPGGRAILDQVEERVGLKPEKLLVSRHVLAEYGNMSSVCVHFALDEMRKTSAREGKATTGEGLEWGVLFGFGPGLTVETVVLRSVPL
Assay: HPLC of dihydroresveratrol formation, Michaelis-Menten fit
Assay type: biochemical
Settings: co-substrate malonyl-CoA (2.5 mM in the described assay), 37 °C, 30 min; text gives the Km 'for DHR' production, Figure 7 legend names p-coumaroyl-CoA as varied substrate; unit printed as mmol
Excerpt: HPLC of dihydroresveratrol formation, Michaelis-Menten fit on DoBS1 (bibenzyl synthase) | Kinetic analysis of DoBS1 toward p-coumaroyl-CoA

A Km of 0.30 ± 0.08 mmol was found for `CC(C)(COP(=O)(O)OP(=O)(O)OC[C@H]1O[C@@H](n2cnc3c(N)ncnc32)[C@H](O)[C@@H]1OP(=O)(O)O)[C@@H](O)C(=O)NCCC(=O)NCCSC(=O)/C=C/c1ccc(O)cc1` [p-coumaroyl-CoA] in this work.
